Results as given in ChEMBL document CHEMBL1821719, “2,7-disubstituted-pyrrolo[2,1-f][1,2,4]triazines: new variant of an old template and application to the discovery of anaplastic lymphoma kinase (ALK) inhibitors with in vivo antitumor activity” (J Med Chem, 2011).
Each block holds one molecule with its values, some of them ahead of it.

Legend:
[1] = molecular target: ALK tyrosine kinase receptor (Homo sapiens, UniProt Q9UM73); assay: Inhibition of human recombinant ALK assessed as phosphorylated product using PLC-gamma/GST substrate by modified ELISA method
ALK tyrosine kinase receptor, sequence (Q9UM73 whole entry): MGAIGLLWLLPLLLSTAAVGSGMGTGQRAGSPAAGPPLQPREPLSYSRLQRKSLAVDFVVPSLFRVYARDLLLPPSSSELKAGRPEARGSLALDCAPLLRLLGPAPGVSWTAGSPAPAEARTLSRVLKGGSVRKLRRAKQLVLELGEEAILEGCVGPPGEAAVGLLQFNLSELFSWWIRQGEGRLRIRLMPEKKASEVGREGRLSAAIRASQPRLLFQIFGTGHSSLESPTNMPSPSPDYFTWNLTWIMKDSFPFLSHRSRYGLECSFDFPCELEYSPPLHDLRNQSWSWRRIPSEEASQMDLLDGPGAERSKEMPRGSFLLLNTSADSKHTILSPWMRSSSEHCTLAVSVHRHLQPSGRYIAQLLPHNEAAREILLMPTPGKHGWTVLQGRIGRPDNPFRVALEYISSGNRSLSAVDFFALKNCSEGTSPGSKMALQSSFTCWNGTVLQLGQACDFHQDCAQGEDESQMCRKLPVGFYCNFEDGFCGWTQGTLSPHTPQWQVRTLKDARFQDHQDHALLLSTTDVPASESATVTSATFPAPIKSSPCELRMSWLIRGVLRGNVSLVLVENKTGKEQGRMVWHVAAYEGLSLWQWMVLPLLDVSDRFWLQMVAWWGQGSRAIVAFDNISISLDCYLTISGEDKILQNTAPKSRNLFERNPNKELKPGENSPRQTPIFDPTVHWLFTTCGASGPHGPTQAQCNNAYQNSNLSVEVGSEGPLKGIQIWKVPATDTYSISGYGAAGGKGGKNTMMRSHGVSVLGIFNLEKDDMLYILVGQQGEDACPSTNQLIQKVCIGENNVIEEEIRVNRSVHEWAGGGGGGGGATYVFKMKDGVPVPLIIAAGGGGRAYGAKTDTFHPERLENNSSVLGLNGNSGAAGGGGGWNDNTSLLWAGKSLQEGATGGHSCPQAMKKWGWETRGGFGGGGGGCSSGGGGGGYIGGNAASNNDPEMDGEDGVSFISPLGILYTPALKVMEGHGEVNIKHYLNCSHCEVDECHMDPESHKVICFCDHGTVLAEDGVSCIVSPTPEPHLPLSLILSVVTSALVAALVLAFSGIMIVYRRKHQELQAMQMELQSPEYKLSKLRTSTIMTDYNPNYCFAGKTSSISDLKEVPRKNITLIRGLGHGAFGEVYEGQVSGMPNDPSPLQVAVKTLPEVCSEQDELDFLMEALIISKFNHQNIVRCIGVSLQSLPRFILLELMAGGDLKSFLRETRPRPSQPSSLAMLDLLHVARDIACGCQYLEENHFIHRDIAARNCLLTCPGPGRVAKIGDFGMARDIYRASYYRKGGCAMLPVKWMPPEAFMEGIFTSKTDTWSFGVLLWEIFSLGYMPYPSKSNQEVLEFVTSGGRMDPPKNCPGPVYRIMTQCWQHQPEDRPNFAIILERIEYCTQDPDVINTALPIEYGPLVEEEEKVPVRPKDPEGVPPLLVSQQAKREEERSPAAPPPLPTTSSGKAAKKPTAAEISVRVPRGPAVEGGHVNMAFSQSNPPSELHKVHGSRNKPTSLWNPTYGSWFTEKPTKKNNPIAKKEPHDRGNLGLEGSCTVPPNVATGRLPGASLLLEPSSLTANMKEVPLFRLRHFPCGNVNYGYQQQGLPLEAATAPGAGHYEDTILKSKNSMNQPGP

Insulin receptor = Insulin receptor (Homo sapiens, UniProt P06213); assay: Inhibition of IR
Insulin receptor, sequence (P06213 28-758 limits assumed): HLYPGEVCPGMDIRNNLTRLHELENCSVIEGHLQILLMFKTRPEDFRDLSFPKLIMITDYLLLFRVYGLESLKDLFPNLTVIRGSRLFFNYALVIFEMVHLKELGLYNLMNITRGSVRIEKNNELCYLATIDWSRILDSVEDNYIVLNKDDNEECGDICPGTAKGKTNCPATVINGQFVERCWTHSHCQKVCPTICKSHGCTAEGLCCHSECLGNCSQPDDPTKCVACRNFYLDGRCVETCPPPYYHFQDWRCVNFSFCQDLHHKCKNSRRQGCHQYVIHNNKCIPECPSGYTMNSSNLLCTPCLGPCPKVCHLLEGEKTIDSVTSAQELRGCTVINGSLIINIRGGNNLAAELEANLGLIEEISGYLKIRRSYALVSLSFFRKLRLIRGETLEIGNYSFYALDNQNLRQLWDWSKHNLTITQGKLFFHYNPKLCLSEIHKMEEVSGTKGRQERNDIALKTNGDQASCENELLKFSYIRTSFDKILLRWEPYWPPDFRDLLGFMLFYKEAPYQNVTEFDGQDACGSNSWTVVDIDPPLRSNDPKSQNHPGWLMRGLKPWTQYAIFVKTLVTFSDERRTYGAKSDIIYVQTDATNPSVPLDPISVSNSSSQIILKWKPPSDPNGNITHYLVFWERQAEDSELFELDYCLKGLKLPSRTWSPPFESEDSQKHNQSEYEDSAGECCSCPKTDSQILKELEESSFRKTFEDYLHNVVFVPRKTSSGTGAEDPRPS
Insulin receptor, sequence (P06213 763-1382 limits assumed): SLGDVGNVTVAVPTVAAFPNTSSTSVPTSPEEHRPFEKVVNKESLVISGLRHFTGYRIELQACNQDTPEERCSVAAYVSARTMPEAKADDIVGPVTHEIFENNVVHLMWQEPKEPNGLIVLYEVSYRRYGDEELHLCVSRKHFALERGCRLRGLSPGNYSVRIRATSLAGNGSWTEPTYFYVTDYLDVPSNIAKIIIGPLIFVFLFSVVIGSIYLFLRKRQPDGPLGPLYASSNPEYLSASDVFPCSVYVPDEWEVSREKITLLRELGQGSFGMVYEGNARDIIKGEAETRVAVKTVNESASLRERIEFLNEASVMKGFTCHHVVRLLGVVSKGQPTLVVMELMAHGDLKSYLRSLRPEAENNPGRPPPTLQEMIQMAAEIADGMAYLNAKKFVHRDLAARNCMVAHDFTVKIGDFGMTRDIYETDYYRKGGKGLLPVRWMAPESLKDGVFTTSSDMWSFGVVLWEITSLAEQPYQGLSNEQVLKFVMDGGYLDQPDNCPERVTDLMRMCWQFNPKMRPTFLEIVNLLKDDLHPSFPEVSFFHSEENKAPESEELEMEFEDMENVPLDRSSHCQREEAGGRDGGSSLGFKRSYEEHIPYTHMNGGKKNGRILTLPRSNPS

[2] = Half-life in mouse liver microsomes; format: ADME, Microsome
[3] = Half-life in rat liver microsomes; format: ADME, Microsome
[4] = Half-life in human liver microsomes; format: ADME, Microsome
Cytochrome P450 1A2 = molecular target: T1, Cytochrome P450 1A2 (Homo sapiens, UniProt P05177); assay: Inhibition of CYP1A2; format: ADME
T1 sequence (P05177 whole entry): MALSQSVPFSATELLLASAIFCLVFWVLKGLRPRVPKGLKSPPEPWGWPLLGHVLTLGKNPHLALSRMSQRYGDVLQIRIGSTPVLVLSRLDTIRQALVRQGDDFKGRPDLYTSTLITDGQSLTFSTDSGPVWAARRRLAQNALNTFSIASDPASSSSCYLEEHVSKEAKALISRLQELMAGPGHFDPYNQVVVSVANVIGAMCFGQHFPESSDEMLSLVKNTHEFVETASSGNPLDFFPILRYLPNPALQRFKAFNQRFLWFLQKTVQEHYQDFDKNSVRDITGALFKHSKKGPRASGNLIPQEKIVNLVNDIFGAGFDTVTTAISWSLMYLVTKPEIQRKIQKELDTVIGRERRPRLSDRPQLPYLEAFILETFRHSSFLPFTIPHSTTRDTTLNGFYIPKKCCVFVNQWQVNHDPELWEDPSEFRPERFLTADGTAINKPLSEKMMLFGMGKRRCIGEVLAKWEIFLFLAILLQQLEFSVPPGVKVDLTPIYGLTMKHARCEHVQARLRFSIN

Cytochrome P450 2C9 = Cytochrome P450 2C9 (Homo sapiens, UniProt P11712); assay: Inhibition of CYP2C9; format: ADME
Cytochrome P450 2C9, sequence (P11712 whole entry): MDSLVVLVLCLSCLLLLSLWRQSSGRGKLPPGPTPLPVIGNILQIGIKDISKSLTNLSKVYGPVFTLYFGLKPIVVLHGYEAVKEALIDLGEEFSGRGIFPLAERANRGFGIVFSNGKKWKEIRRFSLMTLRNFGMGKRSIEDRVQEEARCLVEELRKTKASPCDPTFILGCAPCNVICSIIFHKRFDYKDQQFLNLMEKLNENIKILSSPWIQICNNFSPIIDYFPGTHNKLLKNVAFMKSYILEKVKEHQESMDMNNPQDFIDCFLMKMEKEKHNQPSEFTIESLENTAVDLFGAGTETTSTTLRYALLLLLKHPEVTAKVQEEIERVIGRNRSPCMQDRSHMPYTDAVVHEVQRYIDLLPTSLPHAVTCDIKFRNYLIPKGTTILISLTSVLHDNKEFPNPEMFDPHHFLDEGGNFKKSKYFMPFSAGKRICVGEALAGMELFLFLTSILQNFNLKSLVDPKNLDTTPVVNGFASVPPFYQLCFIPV

Cytochrome P450 2C19 = Cytochrome P450 2C19 (Homo sapiens, UniProt P33261); assay: Inhibition of CYP2C19; format: ADME
Cytochrome P450 2C19, sequence (P33261 whole entry): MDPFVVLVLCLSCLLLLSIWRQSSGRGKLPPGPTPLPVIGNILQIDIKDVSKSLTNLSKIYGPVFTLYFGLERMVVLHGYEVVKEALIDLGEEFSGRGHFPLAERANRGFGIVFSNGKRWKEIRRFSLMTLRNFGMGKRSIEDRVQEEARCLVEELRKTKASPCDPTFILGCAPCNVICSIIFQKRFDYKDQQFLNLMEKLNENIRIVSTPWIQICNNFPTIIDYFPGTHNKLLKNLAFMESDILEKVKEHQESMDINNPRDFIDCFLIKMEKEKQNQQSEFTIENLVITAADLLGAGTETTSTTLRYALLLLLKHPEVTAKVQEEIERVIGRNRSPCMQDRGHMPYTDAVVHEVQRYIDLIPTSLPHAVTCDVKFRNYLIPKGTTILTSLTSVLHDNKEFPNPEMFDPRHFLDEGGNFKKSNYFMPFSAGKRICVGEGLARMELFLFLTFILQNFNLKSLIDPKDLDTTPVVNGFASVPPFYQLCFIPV

Cytochrome P450 2D6 = Cytochrome P450 2D6 (Homo sapiens, UniProt P10635); assay: Inhibition of CYP2D6; format: ADME
Cytochrome P450 2D6, sequence (P10635 whole entry): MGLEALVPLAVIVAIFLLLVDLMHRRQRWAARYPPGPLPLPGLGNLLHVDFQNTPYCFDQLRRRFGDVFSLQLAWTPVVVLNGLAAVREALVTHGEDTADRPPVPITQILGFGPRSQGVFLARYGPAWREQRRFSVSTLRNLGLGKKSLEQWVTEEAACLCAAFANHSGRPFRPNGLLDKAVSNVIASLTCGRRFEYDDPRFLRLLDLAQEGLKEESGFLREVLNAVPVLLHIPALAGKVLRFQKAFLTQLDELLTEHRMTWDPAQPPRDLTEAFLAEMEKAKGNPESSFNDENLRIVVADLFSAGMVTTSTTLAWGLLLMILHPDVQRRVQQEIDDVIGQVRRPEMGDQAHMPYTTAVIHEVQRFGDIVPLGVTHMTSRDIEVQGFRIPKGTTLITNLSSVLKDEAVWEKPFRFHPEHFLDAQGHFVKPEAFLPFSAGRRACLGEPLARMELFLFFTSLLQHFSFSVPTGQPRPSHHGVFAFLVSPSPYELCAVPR

Cytochrome P450 3A4 = Cytochrome P450 3A4 (Homo sapiens, UniProt P08684); assay: Inhibition of CYP3A4; format: ADME
Cytochrome P450 3A4, sequence (P08684 whole entry): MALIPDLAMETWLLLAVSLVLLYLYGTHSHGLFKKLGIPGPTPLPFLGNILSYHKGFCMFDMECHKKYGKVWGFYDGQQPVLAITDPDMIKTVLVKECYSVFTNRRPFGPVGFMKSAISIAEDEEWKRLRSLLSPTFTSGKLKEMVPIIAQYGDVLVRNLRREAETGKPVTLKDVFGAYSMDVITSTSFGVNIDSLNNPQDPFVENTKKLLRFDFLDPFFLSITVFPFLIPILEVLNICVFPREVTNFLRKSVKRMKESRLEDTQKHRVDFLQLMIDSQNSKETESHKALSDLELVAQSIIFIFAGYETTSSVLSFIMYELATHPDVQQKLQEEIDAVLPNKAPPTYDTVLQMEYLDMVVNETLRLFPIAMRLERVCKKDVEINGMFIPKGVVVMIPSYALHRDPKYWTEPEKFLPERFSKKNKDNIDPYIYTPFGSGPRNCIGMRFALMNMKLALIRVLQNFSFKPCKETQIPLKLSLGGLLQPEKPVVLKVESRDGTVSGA

[5] = Oral bioavailability in Sprague-Dawley rat; format: ADME, organism-based; conditions: in vivo
[6] = Half-life in iv dosed Sprague-Dawley rat; format: ADME, organism-based; conditions: in vivo
[7] = Clearance in iv dosed Sprague-Dawley rat; format: ADME, organism-based; conditions: in vivo

IC50 [1]: 7 nM
IC50 (Insulin receptor): 366 nM
half-life [2]: 30 min
half-life [3]: 21 min
half-life [4]: 40 min
IC50 (Cytochrome P450 1A2): > 30000 nM
IC50 (Cytochrome P450 2C9): > 30000 nM
IC50 (Cytochrome P450 2C19): > 30000 nM
IC50 (Cytochrome P450 2D6): > 30000 nM
IC50 (Cytochrome P450 3A4): 14600 nM
Compound: CN1CCN(c2ccc(Nc3ncc4ccc(-c5ccccc5N(C)S(C)(=O)=O)n4n3)cc2)CC1

IC50 [1]: 212 nM
IC50 (Insulin receptor): 295 nM
Compound: COc1cc(Nc2ncc3ccc(-c4ccccc4)n3n2)cc(OC)c1OC

IC50 [1]: > 2000 nM
IC50 (Insulin receptor): 194 nM
Compound: c1ccc(-c2ccc3cnc(Nc4ccc(N5CCOCC5)cc4)nn23)cc1

IC50 [1]: 48 nM
IC50 (Insulin receptor): 35 nM
Compound: CN1CCN(c2ccc(Nc3ncc4ccc(-c5ccccc5)n4n3)cc2)CC1

IC50 [1]: 38 nM
IC50 (Insulin receptor): 19 nM
Compound: COCCN1CCc2ccc(Nc3ncc4ccc(-c5ccccc5)n4n3)cc2CC1

IC50 [1]: 20 nM
IC50 (Insulin receptor): 123 nM
half-life [2]: 8 min
half-life [3]: 14 min
half-life [4]: 40 min
IC50 (Cytochrome P450 1A2): > 30000 nM
IC50 (Cytochrome P450 2C9): > 30000 nM
IC50 (Cytochrome P450 2C19): > 30000 nM
IC50 (Cytochrome P450 2D6): > 30000 nM
IC50 (Cytochrome P450 3A4): 9400 nM
bioavailability [5]: 4%
half-life [6]: 30 min
clearance [7]: 60 mL/min/kg
Compound: COc1ccccc1-c1ccc2cnc(Nc3ccc(N4CCN(C)CC4)cc3)nn12

IC50 [1]: 726 nM
IC50 (Insulin receptor): 326 nM
Compound: CN1CCN(c2ccc(Nc3ncc4ccc(-c5ccccc5C(N)=O)n4n3)cc2)CC1

IC50 [1]: 883 nM
IC50 (Insulin receptor): > 2000 nM
Compound: CN1CCN(c2ccc(Nc3ncc4ccc(-c5ccccc5S(C)(=O)=O)n4n3)cc2)CC1
